{
  "source": "patent US12377175B2",
  "about": "“Trifunctional constructs with tunable pharmacokinetics useful in imaging and anti-tumor therapies” (Cornell University, priority 2016, dated 2025)",
  "test_system": "LNCaP xenograft tumor-bearing mice",
  "experiment": "Biodistribution of 225Ac-macropa-RPS-070 in LNCaP xenograft mice",
  "format": "in vivo, mouse",
  "method": "Cell Culture. […] Cell culture supplies were from Invitrogen unless otherwise noted.\nInoculation of Mice with Xenografts. All animal studies were approved by the Institutional Animal Care and Use Committee of Weill Cornell Medicine and were undertaken in accordance with the guidelines set forth by the USPHS Policy on Humane Care and Use of Laboratory Animals. Animals were housed under standard conditions in approved facilities with 12 h light/dark cycles. Food and water was provided ad libitum throughout the course of the studies. Hairless male nu/nu mice were purchased from the Jackson Laboratory. For inoculation in mice, LNCaP cells were suspended at 4×10^7 cells/mL in a 1:1 mixture of PBS:Matrigel (BD Biosciences). Each mouse was injected in the left flank with 0.25 mL of the cell suspension. Biodistributions were conducted when tumors were in the range 100-400 mm^3.\nBiodistribution of […] in LNCaP xenograft mice. Fifteen LNCaP xenograft tumor-bearing mice (5 per time point) were injected intravenously with a bolus injection of 85-95 kBq and 100 ng ([…]) of each ligand. The mice were sacrificed by cervical dislocation at 4, 24 and 96 h post injection. A blood sample was removed, and a full biodistribution study was conducted on the following organs (with contents): heart, lungs, liver, small intestine, large intestine, stomach, spleen, pancreas, kidneys, muscle, bone, and tumor. Tissues were weighed and counted on a 2470 Wizard Automatic Gamma Counter (Perkin Elmer). 1% ID/mL samples were counted prior to and following each set of tissue samples to enable decay correction to be undertaken. Counts were corrected for decay and for activity injected, and tissue uptake was expressed as percent injected dose per gram (% ID/g). Standard error measurement was calculated for each data point.",
  "key": {"[1]": {"settings": "4 h after i.v. injection, n = 5"}},
  "note": "“And” between values parts separate entries of the source, which are not always exact repeats. Equal entries are not always repeated.",
  "data": [
    {"compound": "O=C(O)CC[C@H](NC(=O)N[C@@H](CCCCNC(=O)Nc1cccc(-c2cn(CCOCCOCCOCCOCCOCCOCCC(=O)N[C@@H](CCCCNC(=S)Nc3cc(CN4CCOCCOCCN(Cc5cccc(C(=O)[O-])n5)CCOCCOCC4)nc(C(=O)[O-])c3)C(=O)N[C@@H](CCCCNC(=O)Cc3ccc(I)cc3)C(=O)O)nn2)c1)C(=O)O)C(=O)O.[225Ac+3]", "note": "[225Ac-macropa-RPS-070]", "values": [
      {"measurement": "Organ distribution, Blood, individual mice 1-5", "setting": "4 h after i.v. injection", "result": "0.9065 % ID/g and 0.5525 % ID/g and 1.118 % ID/g and 0.8276 % ID/g and 0.6564 % ID/g"},
      {"measurement": "Organ distribution, Bone, individual mice 1-5", "setting": "4 h after i.v. injection", "result": "1.149 % ID/g and 1.123 % ID/g and 1.487 % ID/g and 0.9204 % ID/g and 1.155 % ID/g"},
      {"measurement": "Organ distribution, Heart, individual mice 1-5", "setting": "4 h after i.v. injection", "result": "0.7576 % ID/g and 0.6532 % ID/g and 0.774 % ID/g and 0.7515 % ID/g and 0.6565 % ID/g"},
      {"measurement": "Organ distribution, Kidneys, individual mice 1-5", "setting": "4 h after i.v. injection", "result": "65.5884 % ID/g and 20.5274 % ID/g and 108.233 % ID/g and 33.654 % ID/g and 33.0707 % ID/g"},
      {"measurement": "Organ distribution, Large Intestine, individual mice 1-5", "setting": "4 h after i.v. injection", "result": "1.363 % ID/g and 0.6516 % ID/g and 1.274 % ID/g and 0.9166 % ID/g and 0.819 % ID/g"},
      {"measurement": "Organ distribution, Liver, individual mice 1-5", "setting": "4 h after i.v. injection", "result": "1.622 % ID/g and 1.346 % ID/g and 1.742 % ID/g and 1.681 % ID/g and 1.3957 % ID/g"},
      {"measurement": "Organ distribution, Lungs, individual mice 1-5", "setting": "4 h after i.v. injection", "result": "0.9956 % ID/g and 0.6067 % ID/g and 1.2979 % ID/g and 0.9859 % ID/g and 0.8866 % ID/g"},
      {"measurement": "Organ distribution, Muscle, individual mice 1-5", "setting": "4 h after i.v. injection", "result": "0.6801 % ID/g and 0.8058 % ID/g and 0.7282 % ID/g and 0.6767 % ID/g and 0.6562 % ID/g"},
      {"measurement": "Organ distribution, Pancreas, individual mice 1-5", "setting": "4 h after i.v. injection", "result": "0.5549 % ID/g and 0.4164 % ID/g and 0.5532 % ID/g and 0.4675 % ID/g and 0.6604 % ID/g"},
      {"measurement": "Organ distribution, Small Intestine, individual mice 1-5", "setting": "4 h after i.v. injection", "result": "0.1998 % ID/g and 0.1628 % ID/g and 0.3104 % ID/g and 0.2441 % ID/g and 0.1709 % ID/g"},
      {"measurement": "Organ distribution, Spleen, individual mice 1-5", "setting": "4 h after i.v. injection", "result": "1.409 % ID/g and 0.708 % ID/g and 1.613 % ID/g and 1.108 % ID/g and 0.8756 % ID/g"},
      {"measurement": "Organ distribution, Stomach, individual mice 1-5", "setting": "4 h after i.v. injection", "result": "0.3396 % ID/g and 0.2471 % ID/g and 0.3042 % ID/g and 0.4109 % ID/g and 0.2122 % ID/g"},
      {"measurement": "Organ distribution, Tumor, individual mice 1-5", "setting": "4 h after i.v. injection", "result": "6.732 % ID/g and 10.7309 % ID/g and 23.8367 % ID/g and 15.3682 % ID/g and 7.504 % ID/g"},
      {"measurement": "Organ distribution, Blood, Mean", "setting": "[1]", "result": 0.8122, "unit": "% ID/g"},
      {"measurement": "Organ distribution, Bone, Mean", "setting": "[1]", "result": 1.167, "unit": "% ID/g"},
      {"measurement": "Organ distribution, Heart, Mean", "setting": "[1]", "result": 0.7189, "unit": "% ID/g"},
      {"measurement": "Organ distribution, Kidneys, Mean", "setting": "[1]", "result": "52±16 % ID/g and 52.2146 % ID/g"},
      {"measurement": "Organ distribution, Large Intestine, Mean", "setting": "[1]", "result": 1.005, "unit": "% ID/g"},
      {"measurement": "Organ distribution, Liver, Mean", "setting": "[1]", "result": 1.557, "unit": "% ID/g"},
      {"measurement": "Organ distribution, Lungs, Mean", "setting": "[1]", "result": 0.9469, "unit": "% ID/g"},
      {"measurement": "Organ distribution, Muscle, Mean", "setting": "[1]", "result": 0.7094, "unit": "% ID/g"},
      {"measurement": "Organ distribution, Pancreas, Mean", "setting": "[1]", "result": 0.5305, "unit": "% ID/g"},
      {"measurement": "Organ distribution, Small Intestine, Mean", "setting": "[1]", "result": 0.2176, "unit": "% ID/g"},
      {"measurement": "Organ distribution, Spleen, Mean", "setting": "[1]", "result": 1.143, "unit": "% ID/g"},
      {"measurement": "Organ distribution, Stomach, Mean", "setting": "[1]", "result": 0.3028, "unit": "% ID/g"},
      {"measurement": "Organ distribution, Tumor, Mean", "setting": "[1]", "result": "13±3 % ID/g and 12.8342 % ID/g"},
      {"measurement": "Organ distribution, Blood, individual mice 1-5", "setting": "24 h after i.v. injection", "result": "0.3483 % ID/g and 0.3132 % ID/g and 0.2208 % ID/g and 0.2945 % ID/g and 0.277 % ID/g"},
      {"measurement": "Organ distribution, Bone, individual mice 1-5", "setting": "24 h after i.v. injection", "result": "1.273 % ID/g and 1.066 % ID/g and 0.8394 % ID/g and 1.006 % ID/g and 0.6976 % ID/g"},
      {"measurement": "Organ distribution, Heart, individual mice 1-5", "setting": "24 h after i.v. injection", "result": "0.5226 % ID/g and 0.5633 % ID/g and 0.4521 % ID/g and 0.4791 % ID/g and 0.4648 % ID/g"},
      {"measurement": "Organ distribution, Kidneys, individual mice 1-5", "setting": "24 h after i.v. injection", "result": "4.988 % ID/g and 4.257 % ID/g and 3.946 % ID/g and 3.665 % ID/g and 4.103 % ID/g"},
      {"measurement": "Organ distribution, Large Intestine, individual mice 1-5", "setting": "24 h after i.v. injection", "result": "0.133 % ID/g and 0.1259 % ID/g and 0.1325 % ID/g and 0.1343 % ID/g and 0.1318 % ID/g"},
      {"measurement": "Organ distribution, Liver, individual mice 1-5", "setting": "24 h after i.v. injection", "result": "1.578 % ID/g and 1.476 % ID/g and 1.138 % ID/g and 1.143 % ID/g and 1.485 % ID/g"},
      {"measurement": "Organ distribution, Lungs, individual mice 1-5", "setting": "24 h after i.v. injection", "result": "0.5378 % ID/g and 0.4508 % ID/g and 0.4608 % ID/g and 0.4286 % ID/g and 0.4483 % ID/g"},
      {"measurement": "Organ distribution, Muscle, individual mice 1-5", "setting": "24 h after i.v. injection", "result": "0.6119 % ID/g and 0.5149 % ID/g and 0.4483 % ID/g and 0.7803 % ID/g and 0.4458 % ID/g"},
      {"measurement": "Organ distribution, Pancreas, individual mice 1-5", "setting": "24 h after i.v. injection", "result": "0.3985 % ID/g and 0.3912 % ID/g and 0.5035 % ID/g and 0.3332 % ID/g and 0.3194 % ID/g"},
      {"measurement": "Organ distribution, Small Intestine, individual mice 1-5", "setting": "24 h after i.v. injection", "result": "0.08784 % ID/g and 0.09914 % ID/g and 0.08822 % ID/g and 0.09466 % ID/g and 0.1037 % ID/g"},
      {"measurement": "Organ distribution, Spleen, individual mice 1-5", "setting": "24 h after i.v. injection", "result": "0.6208 % ID/g and 0.6576 % ID/g and 0.6201 % ID/g and 0.5768 % ID/g and 0.5855 % ID/g"},
      {"measurement": "Organ distribution, Stomach, individual mice 1-5", "setting": "24 h after i.v. injection", "result": "0.1296 % ID/g and 0.1212 % ID/g and 0.1119 % ID/g and 0.1467 % ID/g and 0.1533 % ID/g"},
      {"measurement": "Organ distribution, Tumor, individual mice 1-5", "setting": "24 h after i.v. injection", "result": "11.6163 % ID/g and 9.269 % ID/g and 7.502 % ID/g and 4.414 % ID/g and 8.047 % ID/g"}
    ]}
  ]
}
